# Results from US20060004028A1, “Novel PARP inhibitor” (MOCHIDA PHARMACEUTICAL CO., LTD., priority 2002, published 2006).
row,Structure (SMILES),melting point
1,"COc1ccc(C2NC(=O)c3cccc4c3N2CCC4=O)cc1Br (stereo not drawn) [Example 27, 3-(3-bromo-4-methoxyphenyl)-6,7-dihydro-3H,5H-pyrido[3,2,1-ij]quinazoline-1,7(2H)-dione]",212.8 to 215.7 °C
2,"CC(C)Oc1ccc(C2NC(=O)c3cccc4c3N2CCC4=O)cc1 (stereo not drawn) [Example 37, 3-(4-isopropoxyphenyl)-6,7-dihydro-3H,5H-pyrido[3,2,1-ij]quinazoline-1,7(2H)-dione]",175.8 to 177.1 °C
3,"COc1ccc(C2NC(=O)c3cccc4c3N2CCC4=O)cc1Cl (stereo not drawn) [Example 42, 3-(3-chloro-4-methoxyphenyl)-6,7-dihydro-3H,5H-pyrido[3,2,1-ij]quinazoline-1,7(2H)-dione]",174.5 to 176.9 °C
4,"CCOC(=O)COc1ccc(C2NC(=O)c3cccc4c3N2CCC4=NO)cc1 (stereo not drawn) [Example 59, 3-(4-ethoxycarbonylmethoxyphenyl)-7-hydroxyimino-6,7-dihydro-3H,5H-pyrido[3,2,1-ij]quinazoline-1(2H)-one]",198.6 to 203.3 °C
5,"O=C1CCN2c3c1cccc3C(=O)NC2c1ccc(SC(F)(F)F)cc1 (stereo not drawn) [Example 45, 3-(4-trifluoromethylthiophenyl)-6,7-dihydro-3H,5H-pyrido[3,2,1-ij]quinazoline-1,7(2H)-dione]",178.2 to 180.9 °C
6,"CN(C)c1ccc(C2NC(=O)c3cccc4c3N2CCC4=O)cc1 (stereo not drawn) [Example 48, 3-(4-N,N-dimethylaminophenyl)-6,7-dihydro-3H,5H-pyrido[3,2,1-ij]quinazoline-1,7(2H)-dione]",198.7 to 202.6 °C
7,"COc1ccc(C2NC(=O)c3cccc4c3N2CCNC4=O)cc1 (stereo not drawn) [Example 14, 3-(4-methoxyphenyl)-5,6-dihydro-3H-pyrimido[5,6,1-jk][1,4]benzdiazepin-1,8(2H,7H)-dione]",279.9 °C (dec.)
8,"O=C1CCN2c3c1cccc3C(=O)NC2c1ccc(C(F)(F)F)cc1 (stereo not drawn) [Example 35, 3-(4-trifluoromethylphenyl)-6,7-dihydro-3H,5H-pyrido[3,2,1-ij]quinazoline-1,7(2H)-dione]",203.1 to 208 °C
9,"COc1ccc(C2NC(=O)c3cc(F)cc4c3N2CCC4=O)cc1 (stereo not drawn) [Example 24, 9-fluoro-3-(4-methoxyphenyl)-6,7-dihydro-3H,5H-pyrido[3,2,1-ij]quinazoline-1,7(2H)-dione]",164.7 to 166 °C
10,"COc1cc(C2NC(=O)c3cccc4c3N2CCC4=NO)ccc1O (stereo not drawn) [Example 61, 7-hydroxyimino-3-(4-hydroxy-3-methoxyphenyl)-6,7-dihydro-3H,5H-pyrido[3,2,1-ij]quinazoline-1(2H)one]",174.4 to 189.3 °C
11,"COc1ccc(C2NC(=O)c3cccc4c3N2CCC4=O)c(C)c1 (stereo not drawn) [Example 49, 3-(2-methyl-4-methoxyphenyl)-6,7-dihydro-3H,5H-pyrido[3,2,1-ij]quinazoline-1,7(2H)-dione]",100.2 to 101.1 °C
12,"COc1ccc(C2NC(=O)c3cccc4c3N2CCC4O)cc1 (stereo not drawn) [Example 2, 7-hydroxy-3-(4-methoxyphenyl)-6,7-dihydro-3H,5H-pyrido[3,2,1-ij]quinazoline-1(2H)-one]",95.7 to 99.6 °C
13,"O=C1CCN2c3c1cccc3C(=O)NC2c1ccsc1 (stereo not drawn) [Example 46, 3-(3-thienyl)-6,7-dihydro-3H,5H-pyrido[3,2,1-ij]quinazoline-1,7(2H)-dione]",190.9 to 193.4 °C
14,"CON=C1CCN2c3c(cccc31)C(=O)NC2Cc1ccc(OC)cc1 (stereo not drawn) [Example 69, 7-methoxyimino-3-(4-methoxyphenyl)methyl-6,7-dihydro-3H,5H-pyrido[3,2,1-ij]quinazoline-1(2H)-one]",190 to 195.9 °C
15,"O=C1NC(c2ccc(F)c(F)c2)N2CCC(=NO)c3cccc1c32 (stereo not drawn) [Example 75, 3-(3,4-difluorophenyl)-7-hydroxyimino-6,7-dihydro-3H,5H-pyrido[3,2,1-ij]quinazoline-1(2H)-one]",218.4 to 222.3 °C
16,"O=C(O)c1ccc(C2NC(=O)c3cccc4c3N2CCC4=O)cc1 (stereo not drawn) [Example 22, 3-(4-carboxyphenyl)-6,7-dihydro-3H,5H-pyrido[3,2,1-ij]quinazoline-1,7(2H)-dione]",154.3 to 158.9 °C
17,"COc1ccc(C2NC(=O)c3cccc4c3N2CCC4=O)cc1O (stereo not drawn) [Example 28, 3-(3-hydroxy-4-methoxyphenyl)-6,7-dihydro-3H,5H-pyrido[3,2,1-ij]quinazoline-1,7(2H)-dione]",204.7 to 212.2 °C
18,"COc1ccc(C2NC(=O)c3cccc4c3N2CCC4=NO)cc1C (stereo not drawn) [Example 57, 7-hydroxyimino-3-(3-methyl-4-methoxyphenyl)-6,7-dihydro-3H,5H-pyrido[3,2,1-ij]quinazoline-1(2H)-one]",236 to 243.3 °C
19,"COc1ccc([C@@H]2NC(=O)c3cccc4c3N2CC[C@H]4N)cc1 [Example 7, (+)-(3R,7R)-7-amino-3-(4-methoxyphenyl)-6,7-dihydro-3H,5H-pyrido-[3,2,1-ij]quinazoline-1(2H)-one]",110 to 112.7 °C
20,"COc1ccc(C2NC(=O)c3ccc(Cl)c4c3N2CCC4=NO)cc1 (stereo not drawn) [Example 52, 8-chloro-7-hydroxyimino-3-(4-methoxyphenyl)-6,7-dihydro-3H,5H-pyrido[3,2,1-ij]quinazoline-1(2H)-one]",132.9 to 133.4 °C
21,"CN(C)CCCOc1ccc(C2NC(=O)c3cccc4c3N2CCC4=O)cc1 (stereo not drawn) [Example 26, 3-(4-(3-N,N-dimethylaminopropoxy)phenyl)-6,7-dihydro-3H,5H-pyrido[3,2,1-ij]quinazoline-1,7(2H)-dione]",174.3 to 178.2 °C
22,"O=C1CCN2c3c1cccc3C(=O)NC2c1ccc(F)c(F)c1 (stereo not drawn) [Example 20, 3-(3,4-difluorophenyl)-6,7-dihydro-3H,5H-pyrido[3,2,1-ij]quinazoline-1,7(2H)-dione]",184 to 189.6 °C
23,"CON=C1CCN2c3c(cc(F)cc31)C(=O)NC2c1ccc(OC)cc1 (stereo not drawn) [Example 51, 9-fluoro-7-methoxyimino-3-(4-methoxyphenyl)-6,7-dihydro-3H,5H-pyrido[3,2,1-ij]quinazoline-1(2H)-one]",200.1 to 202.9 °C
24,"COc1ccc([C@H]2NC(=O)c3cccc4c3N2CC[C@@H]4N)cc1 [Example 6, (−)-(3S,7S)-7-amino-3-(4-methoxyphenyl)-6,7-dihydro-3H,5H-pyrido[3,2,1-ij]quinazoline-1(2H)-one]",110 to 112.7 °C
25,"COc1ccc(C2NC(=O)c3cccc4c3N2CCC4NCc2ccc(N(C)C)cc2)cc1 (stereo not drawn) [Example 13, 7-(4-N,N-dimethylaminophenyl)methylamino-3-(4-methoxyphenyl)-6,7-dihydro-3H,5H-pyrido[3,2,1-ij]quinazoline-1(2H)-one]",73.2 to 75.6 °C

# Continued, values first:
row,melting point,Structure (SMILES)
1,164.3 to 167 °C,"CON=C1CCN2c3c(cccc31)C(=O)NC2c1ccc(OCCCN(C)C)cc1 (stereo not drawn) [Example 53, 7-methoxyimino-3-[4-(3-N,N-dimethylaminopropoxy)phenyl]-6,7-dihydro-3H,5H-pyrido[3,2,1-ij]quinazoline-1(2H)-one]"
2,178.6 to 185.9 °C,"CON=C1CCN2c3c(cccc31)C(=O)NC2c1cccnc1 (stereo not drawn) [Example 67, 7-methoxyimino-3-(3-pyridyl)-6,7-dihydro-3H,5H-pyrido[3,2,1-ij]quinazoline-1(2H)-one]"
3,275.4 to 277.1 °C,"COc1ccc(C2NC(=O)c3cccc4c3N2CCC4=O)cc1[N+](=O)[O-] (stereo not drawn) [Example 10, 3-(4-methoxy-3-nitrophenyl)-6,7-dihydro-1H,5H-pyrido[3,2,1-ij]quinazoline-1,7-(2H)-dione]"
4,172.1 to 175.8 °C,"Cc1ccc(C2NC(=O)c3cccc4c3N2CCC4=O)cc1 (stereo not drawn) [Example 18, 3-(4-methylphenyl)-6,7-dihydro-3H,5H-pyrido[3,2,1-ij]quinazoline-1,7(2H)-dione]"
5,185.3 to 189.8 °C,"CON=C1CCN2c3c(cccc31)C(=O)NC2c1ccc(OC)c(O)c1 (stereo not drawn) [Example 55, 3-(3-hydroxy-4-methoxyphenyl)-7-methoxyimino-6,7-dihydro-3H,5H-pyrido[3,2,1-ij]quinazoline-1(2H)-one]"
6,112.9 to 116.4 °C,"CON=C1CCN2c3c(cccc31)C(=O)NC2c1ccc([N+](=O)[O-])cc1 (stereo not drawn) [Example 71, 7-methoxyimino-3-(4-nitrophenyl)-6,7-dihydro-3H,5H-pyrido[3,2,1-ij]quinazoline-1(2H)-one]"
7,137.4 to 144.2 °C,"COc1ccc(C2NC(=O)c3cccc4c3N2CCC4=O)cc1 (stereo not drawn) [Example 1, 3-(4-methoxyphenyl)-6,7-dihydro-3H,5H-pyrido[3,2,1-ij]quinazoline-1,7(2H)-dione]"
8,216 to 224.8 °C,"O=C1CCN2c3c1cccc3C(=O)NC2c1ccc(F)cc1 (stereo not drawn) [Example 19, 3-(4-fluorophenyl)-6,7-dihydro-3H,5H-pyrido[3,2,1-ij]quinazoline-1,7(2H)-dione]"
9,183.9 to 186.3 °C,"O=C1NC(c2ccc(OCCO)cc2)N2CCC(=NO)c3cccc1c32 (stereo not drawn) [Example 60, 7-hydroxyimino-3-(4-hydroxyethoxyphenyl)-6,7-dihydro-3H,5H-pyrido[3,2,1-ij]quinazoline-1(2H)-one]"
10,215.4 to 219 °C,"Cc1ccc(C2NC(=O)c3cccc4c3N2CCC4=NO)cc1 (stereo not drawn) [Example 77, 7-hydroxyimino-3-(4-methylphenyl)-6,7-dihydro-3H,5H-pyrido[3,2,1-ij]quinazoline-1(2H)-one]"
11,218.7 to 221.7 °C,"CON=C1CCN2c3c(cccc31)C(=O)NC2c1ccc(OC)c(Br)c1 (stereo not drawn) [Example 54, (3-bromo-4-methoxyphenyl)-7-methoxyimino-6,7-dihydro-3H,5H-pyrido[3,2,1-ij]quinazoline-1(2H)-one]"
12,200.8 to 211.9 °C,"COc1ccc(C2NC(=O)c3cccc4c3N2CCC4=NO)cc1 (stereo not drawn) [Example 3, 7-hydroxyimino-3-(4-methoxyphenyl)-6,7-dihydro-3H,5H-pyrido[3,2,1-ij]quinazoline-1(2H)]"
13,210.6 to 217.2 °C,O=C1NC(c2ccc(Cl)cc2)N2CCC(=NO)c3cccc1c32 (stereo not drawn) [Example 78]
14,246.3 °C (dec.),"CON=C1CCN2c3c(cccc31)C(=O)NC2c1ccc(-n2ccnc2)cc1 (stereo not drawn) [Example 58, 3-[4-(imidazole-1-yl)phenyl]-7-methoxyimino-6,7-dihydro-3H,5H-pyrido[3,2,1-ij]quinazoline-1(2H)-one]"
